Source: patent US5252469A, “Process for producing a transglutaminase derived from streptomyces” (Amano Pharmaceutical Co., Ltd., priority 1990, dated 1993)
Where two headings read alike, the source gives them in different places. Peptide text beside a SMILES is read from it. * marks the point of attachment. Cbz = O=C(OCc1ccccc1)*

Experiments:
Format in all cases: biochemical
[1] = system: Enzyme No. 83 (transglutaminase of Streptomyces sp No. 83)
Procedure: (§1) Measurement of the activity of BTGase is carried out by performing a reaction using benzyloxycarbonyl-L-glutaminyl glycine and hydroxylamine as substrates in the absence of Ca^2+, forming an iron complex with the resulting hydroxamic acid in the presence of trichloroacetic acid, measuring absorption at 525 nm and determining the amount of hydroxamic acid by a calibration curve to calculate the activity. The BTGase activity is measured by the method described below, unless otherwise indicated.
(§2) To 0.05 ml of an enzyme solution is added 0.5 ml of Reagent A and they are mixed with each other. After reacting at 37° C. for 10 minutes, Reagent B is added thereto to discontinue the reaction and form an Fe complex. Thereafter, absorbance is measured at 525 nm. […] Separately, a calibration curve is prepared using L-glutamic acid γ-monohydroxamic acid instead of the enzyme solution, and the amount of hydroxamic acid produced is determined by the difference in absorbance described above. An enzyme activity which produces 1 μmol of hydroxamic acid per 1 minute is defined as 1 unit.
(§3) Each inhibitor was added in a concentration of 1 mM.

[2] = system: Enzyme No. 466 (transglutaminase of Streptomyces lavendulae No. 466)
Procedure: as §1, §2, §3

[3] = molecular target: T1, MTGase (transglutaminase of guinea pig liver) (UniProt P08587); assay: Substrate specificity: reaction of synthetic substrates with hydroxylamine; settings: Table 9; CBZ-Gln-Gly = 100
T1 construct: The guinea pig liver-derived transglutaminase was prepared by the method described in Connellan et al; from tissue; host or cells: guinea pig liver
T1 sequence (P08587 2-690 limits assumed): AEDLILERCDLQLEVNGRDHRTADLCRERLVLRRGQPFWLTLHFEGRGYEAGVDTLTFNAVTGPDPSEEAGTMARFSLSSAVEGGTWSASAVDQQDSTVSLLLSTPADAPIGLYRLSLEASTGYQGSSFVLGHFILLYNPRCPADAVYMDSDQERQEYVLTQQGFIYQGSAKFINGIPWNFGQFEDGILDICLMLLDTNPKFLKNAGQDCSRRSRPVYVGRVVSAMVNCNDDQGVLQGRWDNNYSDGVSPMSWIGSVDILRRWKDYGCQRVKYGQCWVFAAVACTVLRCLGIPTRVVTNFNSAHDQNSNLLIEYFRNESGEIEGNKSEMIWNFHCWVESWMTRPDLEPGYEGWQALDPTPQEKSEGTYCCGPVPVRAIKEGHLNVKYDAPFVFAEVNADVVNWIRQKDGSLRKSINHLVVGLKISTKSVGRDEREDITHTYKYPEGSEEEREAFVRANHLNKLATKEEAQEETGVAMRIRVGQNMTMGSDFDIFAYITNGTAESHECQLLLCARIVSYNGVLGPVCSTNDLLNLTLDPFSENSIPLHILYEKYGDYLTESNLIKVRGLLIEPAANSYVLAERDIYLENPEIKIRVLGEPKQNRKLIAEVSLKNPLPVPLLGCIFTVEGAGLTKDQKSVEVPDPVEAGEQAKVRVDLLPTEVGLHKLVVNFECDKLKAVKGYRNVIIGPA
Procedure: as §1
(§4) To 0.05 ml of an enzyme solution is added 0.5 ml of Reagent A and they are mixed with each other. After reacting at 37° C. for 10 minutes, Reagent B is added thereto to discontinue the reaction and form an Fe complex. Thereafter, absorbance is measured at 525 nm. As a control, absorbance is measured after reacting a previously thermally inactivated enzyme solution in a similar manner and a difference in absorbance between the control and the enzyme solution is measured. Separately, a calibration curve is prepared using L-glutamic acid γ-monohydroxamic acid instead of the enzyme solution, and the amount of hydroxamic acid produced is determined by the difference in absorbance described above. An enzyme activity which produces 1 μmol of hydroxamic acid per 1 minute is defined as 1 unit.
(§5) Using each BTGase, reactions of various synthetic substrates with hydroxylamine were examined. […] In this case, the concentration of various synthetic substrates is 5 mM. In the table, CBZ, Gln, Gly and Asn are abbreviations for benzyloxycarbonyl group, glutaminyl group, glycyl group and asparaginyl group, respectively.
Next, properties of BTGases are compared to those of guinea pig liver-derived transglutaminase. The guinea pig liver-derived transglutaminase was prepared by the method described in Connellan et al., Journal of Biological Chemistry, Vol. 246, No. 4, pp. 1093-1098 (1971). As will be apparent from Tables 9 and 10, various differences in enzymological properties are noted between transglutaminase of guinea pig liver (hereafter, referred to as MTGase) which has been mainly investigated heretofore and BTGases derived from the genus Streptomyces: in particular, differences are noted in temperature stability, molecular weight, isoelectric point and substrate specificity. Further, a difference is noted in that the BTGases of the present invention act in the presence and absence of Ca^2+. Therefore, the respective enzymes of the present invention are different from MTGase in their properties.

[4] = system: Enzyme No. 83 (transglutaminase of Streptomyces sp No. 83); assay: as above; settings: for Substrate specificity, Enzyme No. 83 (reactivity of substrate with hydroxylamine): Table 6, synthetic substrate 5 mM; for Substrate specificity, Enzyme No. 83 (reactivity of substrate with hydroxylamine) / Substrate specificity (%), Enzyme No. 83: CBZ-Gln-Gly = 100; for Substrate specificity (%), Enzyme No. 83: Table 9; for Reactivity of synthetic substrate with Enzyme No. 83 (in words): substrate 5 mM, text says BTGase (both enzymes)
Procedure: as §1, §4, §5

[5] = system: Enzyme No. 466 (transglutaminase of Streptomyces lavendulae No. 466); assay: as above; settings: for Substrate specificity, Enzyme No. 466 (reactivity of substrate with hydroxylamine): Table 6, synthetic substrate 5 mM; for Substrate specificity, Enzyme No. 466 (reactivity of substrate with hydroxylamine) / Substrate specificity (%), Enzyme No. 466: CBZ-Gln-Gly = 100; for Substrate specificity (%), Enzyme No. 466: Table 9; for Reactivity of synthetic substrate with Enzyme No. 466 (in words): substrate 5 mM, text says BTGase (both enzymes)
Procedure: as §1, §4, §5

[6] = system: Enzyme No. 83 (transglutaminase of Streptomyces sp No. 83); assay: Influence of metal ions on transglutaminase activity; settings: for Effect of metal ion on activity of Enzyme No. 83 (in words): 1 mM, text says all BTGases; for Activity of Enzyme No. 83 with metal ion (%): metal ion 1 mM in activity measurement system, None = 100, 10 min
Procedure: as §1, §2

[7] = system: Enzyme No. 466 (transglutaminase of Streptomyces lavendulae No. 466); assay: as above; settings: for Effect of metal ion on activity of Enzyme No. 466 (in words): 1 mM, text says all BTGases; for Activity of Enzyme No. 466 with metal ion (%): metal ion 1 mM in activity measurement system, None = 100, 10 min
Procedure: as §1, §2

[8] = molecular target: T1, MTGase (transglutaminase of guinea pig liver); assay: Influence of Ca2+ on activity
Procedure: as §1, §4
Next, properties of BTGases are compared to those of guinea pig liver-derived transglutaminase. […]

[9] = 1 mM, 25° C. for 30 minutes, text says all BTGases
[10] = inhibitor 1 mM, 25° C. for 30 minutes, None = 100

Row | SMILES | Substrate specificity (%), MTGase [3] [%] | Substrate specificity, Enzyme No. 83 (reactivity of substrate with hydroxylamine) [4] | Substrate specificity (%), Enzyme No. 83 [4] [%] | Substrate specificity, Enzyme No. 466 (reactivity of substrate with hydroxylamine) [5] | Substrate specificity (%), Enzyme No. 466 [5] [%] | Activity of Enzyme No. 83 with metal ion (%) [6] [%] | Activity of Enzyme No. 466 with metal ion (%) [7] [%] | also measured
1 | O=C(O)CI [Monoiodoacetic acid, monoiodoacetic acid] | – | – | – | – | – | – | – | Activity of Enzyme No. 83 with inhibitor [1]: 92; Effect of inhibitor on activity of Enzyme No. 83 (in words) [1]: inhibited; Activity of Enzyme No. 466 with inhibitor [2]: 87; Effect of inhibitor on activity of Enzyme No. 466 (in words) [2]: inhibited
2 | NC(=O)CC[C@H](NC(=O)OCc1ccccc1)C(=O)NCC(=O)O [CBZ--Gln--Gly, benzyloxycarbonylglutaminyl glycine] (Cbz-Gln-Gly-OH) | 100 | 100 | 100 | 100 | 100 | – | – | Reactivity of synthetic substrate with Enzyme No. 83 (in words) [4]: highest; Reactivity of synthetic substrate with Enzyme No. 466 (in words) [5]: highest
3 | CCOC(=O)CNC(=O)[C@H](CCC(N)=O)NC(=O)OCc1ccccc1 [CBZ--Gln--Gly--OEt] (Cbz-Gln-Gly-OEt) | 122 | 61 | 61 | 65 | 65 | – | – | –
4 | NC(=O)CC[C@H](NC(=O)CNC(=O)OCc1ccccc1)C(=O)NCC(=O)NCC(=O)O [CBZ--Gly--Gln--Gly--Gly] (Cbz-GQGG-OH) | 126 | 10 | 10 | 18 | 18 | – | – | –
5 | [Cl][Cu][Cl] [CuCl2] | – | – | – | – | – | 89 | 90 | Effect of metal ion on activity of Enzyme No. 83 (in words) [6]: inhibited; Effect of metal ion on activity of Enzyme No. 466 (in words) [7]: inhibited
6 | O=C(O)c1cc[c]([Hg][Cl])cc1 [PCMB, p-chloromercury benzoic acid] | – | – | – | – | – | – | – | Effect of inhibitor on activity of Enzyme No. 83 (in words) [1, 9]: inhibited; Activity of Enzyme No. 83 with inhibitor [1, 10]: 86; Effect of inhibitor on activity of Enzyme No. 466 (in words) [2, 9]: inhibited; Activity of Enzyme No. 466 with inhibitor [2, 10]: 28
7 | [Cl-].[Na+] [NaCl] | – | – | – | – | – | 102 | 98 | –
8 | [Cl-].[Cl-].[Zn+2] [ZnCl2] | – | – | – | – | – | 36 | 10 | Effect of metal ion on activity of Enzyme No. 83 (in words) [6]: inhibited; Effect of metal ion on activity of Enzyme No. 466 (in words) [7]: inhibited
9 | [Cl-].[K+] [KCl] | – | – | – | – | – | 104 | – | –
10 | CCN1C(=O)C=CC1=O [NEM, N-ethylmaleimide] | – | – | – | – | – | – | – | Effect of inhibitor on activity of Enzyme No. 83 (in words) [1, 9]: inhibited; Activity of Enzyme No. 83 with inhibitor [1, 10]: 10; Effect of inhibitor on activity of Enzyme No. 466 (in words) [2, 9]: inhibited; Activity of Enzyme No. 466 with inhibitor [2, 10]: 5
11 | [Ba+2].[Cl-].[Cl-] [BaCl2] | – | – | – | – | – | 100 | 100 | –
12 | [Cl][Fe]([Cl])[Cl] [FeCl3] | – | – | – | – | – | 93 | 97 | –
13 | O=S(=O)(F)Cc1ccccc1 [PMSF, phenylmethylsulfonyl fluoride] | – | – | – | – | – | – | – | Activity of Enzyme No. 83 with inhibitor [1, 10]: 101; Activity of Enzyme No. 466 with inhibitor [2, 10]: 103
14 | NC(=O)CC[C@H](NC(=O)OCc1ccccc1)C(=O)O [CBZ--Gln, benzyloxycarbonyl glutamine] | 0 | 0 | 0 | 0 | 0 | – | – | Reactivity of synthetic substrate with Enzyme No. 83 (in words) [4]: No BTGase reacts; Reactivity of synthetic substrate with Enzyme No. 466 (in words) [5]: No BTGase reacts
15 | NC(=O)C[C@H](NC(=O)OCc1ccccc1)C(=O)NCC(=O)O [CBZ--Asn--Gly, benzyloxycarbonylasparaginyl glycine] (Cbz-Asn-Gly-OH) | 0 | 0 | 0 | 0 | 0 | – | – | Reactivity of synthetic substrate with Enzyme No. 83 (in words) [4]: No BTGase reacts; Reactivity of synthetic substrate with Enzyme No. 466 (in words) [5]: No BTGase reacts
16 | [Cl][Pb][Cl] [PbCl2] | – | – | – | – | – | 59 | 32 | Effect of metal ion on activity of Enzyme No. 83 (in words) [6]: inhibited; Effect of metal ion on activity of Enzyme No. 466 (in words) [7]: inhibited
17 | NC(=O)CC[C@H](NC(=O)OCc1ccccc1)C(=O)N[C@@H](CCC(N)=O)C(=O)NCC(=O)O [CBZ--Gln--Gln--Gly] (Cbz-Gln-Gln-Gly-OH) | 288 | 49 | 49 | 35 | 35 | – | – | –
18 | [Cl-].[Cl-].[Co+2] [CoCl2] | – | – | – | – | – | 100 | 98 | –
19 | O=C(O)CN(CCN(CC(=O)O)CC(=O)O)CC(=O)O [EDTA] | – | – | – | – | – | – | – | Activity of Enzyme No. 83 with inhibitor [1]: 103; Activity of Enzyme No. 466 with inhibitor [2]: 108
20 | [Cl-].[Cl-].[Sr+2] [SrCl2] | – | – | – | – | – | 100 | 97 | –
21 | NCC(=O)N[C@@H](CCC(N)=O)C(=O)NCC(=O)O [Gly--Gln--Gly, glycylglutaminyl glycine] (H-Gly-Gln-Gly-OH) | 0 | 0 | 0 | 0 | 0 | – | – | Reactivity of synthetic substrate with Enzyme No. 83 (in words) [4]: No BTGase reacts; Reactivity of synthetic substrate with Enzyme No. 466 (in words) [5]: No BTGase reacts
22 | [Ca+2].[Cl-].[Cl-] [CaCl2] | – | – | – | – | – | – | – | Activity of MTGase (%) ([8]; 1 mM CaCl2): 39%; Activity of MTGase (%) ([8]; 5 mM CaCl2): 100%
